{"source": "paper PMC7179297", "about": "“Preclinical Antimalarial Combination Study of M5717, a Plasmodium falciparum Elongation Factor 2 Inhibitor, and Pyronaridine, a Hemozoin Formation Inhibitor” (Antimicrobial Agents and Chemotherapy, 2020)", "key": {"[1]": {"assay": "Pharmacokinetic analysis in blood of mice from the efficacy study", "format": "in vivo", "details": "for AUC(0-inf) / half-life: NOD-scid IL-2Rγnull, mouse, whole blood, po; for AUC(0-inf): mean ± SD; for half-life / pharmacokinetics in combination versus single-agent treatment / half-life (t1/2): mice; for half-life / half-life (t1/2): administered alone, single oral dose; for half-life: read-out: half-life (t1/2) (converted); for pharmacokinetics in combination versus single-agent treatment: Cmax, AUC0-inf and t1/2, entries 8 to 11", "protocol": "The test compounds’ concentrations in blood were assessed in order to determine pharmacokinetic parameters in mice from the efficacy study. Peripheral blood samples (20 μl) were sampled at different time points (1, 2, 4, 6, 24, 48, 72, 96, 168, and 216 h post treatment), mixed with 20 μl of H2O Milli Q and immediately frozen on dry ice. Samples were stored at –80°C until analysis. Blood from control mice was used for bioanalysis calibration and QC purposes. For liquid chromatography with tandem mass spectrometry (LC-MS/MS) analysis, the frozen samples were thawed and treated with two volumes equivalent of acetonitrile containing the internal standard. After centrifugation, one volume equivalent of supernatant was diluted with one volume equivalent of water containing heptafluorobutyric acid (HFBA). The extracts were analyzed by LC-MS/MS (quantification by HESI ionization in positive ion mode) performed at Swiss BioQuant AG (Switzerland). A noncompartmental analysis was performed to determine pharmacokinetic parameters using the Phoenix WinNonlin program (version 6.3).\n56 Pharmacokinetic parameters\n57 The pharmacokinetic analysis was performed non-compartmentally using the extravascular model. For the analysis,\n58 concentrations below the LLOQ were set to 0. The following pharmacokinetic parameters of the analytes were\n59 derived from the concentration-time profiles.\nC0 The pre-dose concentration assumed to be 0 on the day of oral dosing.\ntmax Time where the concentration in matrix is the highest.\nCmax/dose Cmax normalized to the dose of 1 mg/kg.\nAUC0-t Area under the matrix concentration -time curve from 0 h to time t calculated using\nthe linear trapezoidal rule , using C0 as defined above.\nAUC0-∞ Area under the matrix concentration -time curve from 0 h to infinity calculated using\nAUC0-∞/dose AUC0-∞ normalized to a dose of 1 mg/kg.\n61 Software for calculations: Phoenix WinNonlin program (version 6.3).\n62 All concentration values and pharmacokinetic parameters were rounded to 3 significant digits.\n63 The numbers listed for %bias and %CV were rounded to 1 decimal place."}, "[2]": {"system": "P. falciparum NF54 strain", "assay": "[3H]hypoxanthine incorporation assay, individual drugs", "format": "cell-based", "details": "Plasmodium falciparum, 72 h", "protocol": "IC50 and drug interaction studies were performed as previously described ([27], [28]). […] Cultures were harvested onto glass fiber filters, washed, and the radioactivity was counted using a MicroBetaplate liquid scintillation counter and recorded as counts per minute (cpm) per well. Results are expressed as a percentage of the untreated controls (see the supplemental material for more details). page 2: 25 In vitro isobolograms 26 Compounds were tested against intraerythrocytic forms of P. falciparum derived from asynchronous stock cultures 27 of lab strain NF54 (Schiphol airport strain of unknown origin), as previously described.i,ii The culture medium was […] 29 mM HEPES, 25 mM NaHCO3 (pH 7.3), 0.36 mM hypoxanthine and 100 μg/mL neomycin. Human type A+ 30 erythrocytes served as host cells. […] 31 in humidified modular chambers. Testing of the individual drugs was carried out in 96-well microtiter plates. The 32 compounds were dissolved in DMSO (10 mg/mL), prediluted in hypoxanthine-free culture medium and titrated in […] After addition of an equal volume of parasite culture with a parasitemia of […] Parasite growth was measured by the incorporation of radiolabelled [3H]hypoxanthine (0.25 µCi in […] 37 assay duration) prior to the termination of the test. Cultures were harvested onto glass-fiber filters and washed with 38 distilled water. The radioactivity was counted using a MicroBetaplate liquid scintillation counter (Wallac, Zürich, 39 Switzerland) and the results recorded as counts per minute (cpm) per well at each drug concentration and expressed 40 as percentage of the untreated controls. Fifty percent inhibitory concentrations (IC50) were determined by linear 41 interpolation.v 42 43 For data interpretation, the IC50s of the drugs in combination were expressed as fractions of the IC50s of the drugs 44 alone. These fractions were called “Fractional Inhibitory Concentrations” (FIC) for drug A and for drug B, 45 respectively. 46 FIC Drug A = IC50 A (B) IC50 A […] 49 50 Formulation 51 Pyronaridine (tetraphosphate salt) and […] (succinate salt) were solubilized in a vehicle consisting of 70% […] 54 55 2"}}, "note": "pEC50: −log10 of the molar value. Read-outs that look alike come from different tables or passages of the source."}
{"smiles": "O=C(NCCN1CCCC1)c1cc(-c2ccc(CN3CCOCC3)cc2)nc2ccc(F)cc12", "note": "[M5717]", "values": [{"measurement": "AUC(0-inf)", "setting": "[1]; 3 mg/kg, M5717 3 mg/kg single oral dose (entry 1), read-out: M5717 exposure AUC0-inf", "value": 1570, "unit": "ng·h/mL"}, {"measurement": "AUC(0-inf)", "setting": "[1]; 6 mg/kg, M5717 6 mg/kg single oral dose (entry 2), read-out: M5717 exposure AUC0-inf", "value": 3390, "unit": "ng·h/mL"}, {"measurement": "AUC(0-inf)", "setting": "[1]; 12 mg/kg, M5717 12 mg/kg + pyronaridine 12 mg/kg single oral dose (entry 10), read-out: M5717 exposure AUC0-inf", "value": 6650, "unit": "ng·h/mL"}, {"measurement": "AUC(0-inf)", "setting": "[1]; 12 mg/kg, M5717 12 mg/kg single oral dose (entry 3), read-out: M5717 exposure AUC0-inf", "value": 6160, "unit": "ng·h/mL"}, {"measurement": "AUC(0-inf)", "setting": "[1]; 30 mg/kg, M5717 30 mg/kg single oral dose (entry 4), read-out: M5717 exposure AUC0-inf", "value": 16900, "unit": "ng·h/mL"}, {"measurement": "AUC(0-inf)", "setting": "[1]; M5717 3 mg/kg + pyronaridine 6 mg/kg single oral dose (entry 8), read-out: M5717 exposure AUC0-inf", "value": 1360, "unit": "ng·h/mL"}, {"measurement": "AUC(0-inf)", "setting": "[1]; M5717 6 mg/kg + pyronaridine 36 mg/kg single oral dose (entry 11), read-out: M5717 exposure AUC0-inf", "value": 2980, "unit": "ng·h/mL"}, {"measurement": "AUC(0-inf)", "setting": "[1]; M5717 12 mg/kg + pyronaridine 6 mg/kg single oral dose (entry 9), read-out: M5717 exposure AUC0-inf", "value": 6400, "unit": "ng·h/mL"}, {"measurement": "half-life", "setting": "[1]", "value": "~37", "unit": "h"}, {"measurement": "pharmacokinetics in combination versus single-agent treatment", "setting": "[1]", "value": "unchanged"}, {"measurement": "half-life (t1/2)", "setting": "[1]", "value": 37, "unit": "h"}, {"measurement": "pEC50", "setting": "[2]", "value": 9.52}]}
{"smiles": "COc1ccc2nc3cc(Cl)ccc3c(Nc3cc(CN4CCCC4)c(O)c(CN4CCCC4)c3)c2n1", "note": "[pyronaridine]", "values": [{"measurement": "AUC(0-inf)", "setting": "[1]; 6 mg/kg, pyronaridine 6 mg/kg single oral dose (entry 5), read-out: Pyronaridine exposure AUC0-inf", "value": 6560, "unit": "ng·h/mL"}, {"measurement": "AUC(0-inf)", "setting": "[1]; 12 mg/kg, M5717 12 mg/kg + pyronaridine 12 mg/kg single oral dose (entry 10), read-out: Pyronaridine exposure AUC0-inf", "value": 12100, "unit": "ng·h/mL"}, {"measurement": "AUC(0-inf)", "setting": "[1]; 12 mg/kg, pyronaridine 12 mg/kg single oral dose (entry 6), read-out: Pyronaridine exposure AUC0-inf", "value": 14500, "unit": "ng·h/mL"}, {"measurement": "AUC(0-inf)", "setting": "[1]; 36 mg/kg, pyronaridine 36 mg/kg single oral dose (entry 7), read-out: Pyronaridine exposure AUC0-inf", "value": 55600, "unit": "ng·h/mL"}, {"measurement": "AUC(0-inf)", "setting": "[1]; M5717 3 mg/kg + pyronaridine 6 mg/kg single oral dose (entry 8), read-out: Pyronaridine exposure AUC0-inf", "value": 8500, "unit": "ng·h/mL"}, {"measurement": "AUC(0-inf)", "setting": "[1]; M5717 6 mg/kg + pyronaridine 36 mg/kg single oral dose (entry 11), read-out: Pyronaridine exposure AUC0-inf", "value": 58200, "unit": "ng·h/mL"}, {"measurement": "AUC(0-inf)", "setting": "[1]; M5717 12 mg/kg + pyronaridine 6 mg/kg single oral dose (entry 9), read-out: Pyronaridine exposure AUC0-inf", "value": 8490, "unit": "ng·h/mL"}, {"measurement": "half-life", "setting": "[1]", "value": "~74", "unit": "h"}, {"measurement": "pharmacokinetics in combination versus single-agent treatment", "setting": "[1]", "value": "No change"}, {"measurement": "half-life (t1/2)", "setting": "[1]", "value": 74, "unit": "h"}, {"measurement": "pEC50", "setting": "[2]", "value": 8.46}]}
